The text below walks through data of patent US20260223850A1, “SUBSTITUTED PYRROLIDONE COMPOUND, PREPARATION METHOD THEREFOR, COMPOSITION AND APPLICATION THEREOF” (QINGDAO KINGAGROOT CHEMICAL COMPOUND CO., LTD., priority 2023, published 2026).

Common to all, as to experiment: Seedling stage sealing experiment for water-seeding
What all share (format): in vivo

Test [1] relates to Leptochloa chinensis. Particulars: 120 g a.i./ha, 15 days, fresh weight control rate. A digest of the protocol: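 Seeds sown in soil-filled bowls kept moist in water-filled boxes; compound in acetone diluted with water and spray-applied at 120, 60, 30 and 15 g a.i./ha, triplicate. After 15 days in greenhouse, fresh-weight growth control scored on a 0–9 scale (9 = dead, 0 = no effect), averaged.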

Test [2] has as its system Echinochloa crusgalli. The following applies: 120 g a.i./ha, seedling stage sealing, 15 days, fresh weight control rate.
The test system of test [3] is Echinochloa phyllopogon. The following applies: 120 g a.i./ha, seedling stage sealing, 15 days, fresh weight control rate. A digest of the protocol: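 Read-out: 0–9 damage level from fresh-weight control rate (9 = completely dead, 1 = under 10%, 0 = no effect), averaged over triplicates, taken 15 days after spraying. Doses were 120, 60, 30 and 15 g a.i./ha, acetone/water solution, spray tower.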

The structures appear in SMILES notation.

For the compound `CN1C[C@H](c2ccc(C(F)(F)F)c(F)c2)[C@@H](C(=O)Nc2cnn(C)c2Cl)C1=O` [315′], the “Leptochloa chinensis activity level (growth control rate)” value (“Leptochloa chinensis activity level” for short) in test [1] worked out at 9. Moreover, in test [2], the “Echinochloa crusgalli activity level (growth control rate)” value (“Echinochloa crusgalli activity level” below) came to 9. The “Echinochloa phyllopogon activity level (growth control rate)” value (“Echinochloa phyllopogon activity level” below) in test [3] is 8 (Level 8: growth control rate greater than or equal to 90% and less than 100%).

For the compound `CN1CC(c2cc(F)c(F)c(F)c2)C(C(=O)Nc2c(O)nn(C)c2F)C1=O` (stereo not drawn) [Compound 324], the “Leptochloa chinensis activity level” value in test [1] is given as 9. For the same compound, the “Echinochloa crusgalli activity level” value in test [2] is 7 (Level 7: growth control rate greater than or equal to 80% and less than 90%). In addition, the “Echinochloa phyllopogon activity level” value in test [3] was 7 (Level 7: growth control rate greater than or equal to 80% and less than 90%).

On to `COc1cc(C2CN(C)C(=O)C2C(=O)Nc2cnn(C)c2Cl)ccc1C` (stereo not drawn) [Compound 321], for which, in test [1], the “Leptochloa chinensis activity level” value is 6 (Level 6: growth control rate greater than or equal to 70% and less than 80%). For the same compound, the “Echinochloa crusgalli activity level” value in test [2] was 5 (Level 5: growth control rate greater than or equal to 50% and less than 70%). In addition, the “Echinochloa phyllopogon activity level” value in test [3] is 5 (Level 5: growth control rate greater than or equal to 50% and less than 70%).

As to `Cc1cc(C)cc(C2CN(C)C(=O)C2C(=O)Nc2c(O)nn(C)c2F)c1` (stereo not drawn) [Compound 286], the “Leptochloa chinensis activity level” value in test [1] is given as 9. In test [2], the “Echinochloa crusgalli activity level” value stood at 9. Further, in test [3], the “Echinochloa phyllopogon activity level” value is 7 (Level 7: growth control rate greater than or equal to 80% and less than 90%).

Consider `COCc1c(NC(=O)[C@H]2C(=O)N(C)C[C@@H]2c2cccc(C(F)(F)F)c2)cnn1C` [193′], for which the “Leptochloa chinensis activity level” value in test [1] stood at 9. Besides, the “Echinochloa crusgalli activity level” value in test [2] worked out at 9. Besides, the “Echinochloa phyllopogon activity level” value in test [3] is 7 (Level 7: growth control rate greater than or equal to 80% and less than 90%).

For the compound `CN1CC(c2cccc(Cl)c2)C(C(=O)Nc2cnn(C)c2Cl)C1=O` (stereo not drawn) [Compound 16], the “Leptochloa chinensis activity level” value in test [1] stood at 9. Besides, the “Echinochloa crusgalli activity level” value in test [2] is 6 (Level 6: growth control rate greater than or equal to 70% and less than 80%). Moreover, in test [3], the “Echinochloa phyllopogon activity level” value was 5 (Level 5: growth control rate greater than or equal to 50% and less than 70%).

Take `COc1c(Cl)ccc(C2CN(C)C(=O)C2C(=O)Nc2c(O)nn(C)c2F)c1F` (stereo not drawn) [Compound 331]: in test [1], the “Leptochloa chinensis activity level” value was found to be 9. For the same compound, in test [2], the “Echinochloa crusgalli activity level” value came to 9. Further, the “Echinochloa phyllopogon activity level” value in test [3] was 7 (Level 7: growth control rate greater than or equal to 80% and less than 90%).

`CN1C[C@H](c2cc(F)cc(C(F)(F)F)c2)[C@@H](C(=O)Nc2cnn(C3CC3)c2Cl)C1=O` [290′]: the “Leptochloa chinensis activity level” value in test [1] is given as 9. Moreover, the “Echinochloa crusgalli activity level” value in test [2] is given as 9. For the same compound, the “Echinochloa phyllopogon activity level” value in test [3] was 8 (Level 8: growth control rate greater than or equal to 90% and less than 100%).

In the case of `CN1CC(c2ccc(Cl)c(Cl)c2)C(C(=O)Nc2cnn(C)c2Cl)C1=O` (stereo not drawn) [Compound 309], the “Leptochloa chinensis activity level” value in test [1] worked out at 9. The “Echinochloa crusgalli activity level” value in test [2] was 6 (Level 6: growth control rate greater than or equal to 70% and less than 80%). Besides, the “Echinochloa phyllopogon activity level” value in test [3] was 5 (Level 5: growth control rate greater than or equal to 50% and less than 70%).

On to `CN1CC(c2ccc(F)cc2F)C(C(=O)Nc2cnn(C)c2Cl)C1=O` (stereo not drawn) [Compound 304], for which the “Leptochloa chinensis activity level” value in test [1] is 5 (Level 5: growth control rate greater than or equal to 50% and less than 70%). Besides, the “Echinochloa crusgalli activity level” value in test [2] is 7 (Level 7: growth control rate greater than or equal to 80% and less than 90%). Moreover, in test [3], the “Echinochloa phyllopogon activity level” value is 6 (Level 6: growth control rate greater than or equal to 70% and less than 80%).

As to `CN1C[C@H](c2ccc(F)c(Cl)c2)[C@@H](C(=O)Nc2cnn(C)c2C2CC2)C1=O` [308′], in test [1], the “Leptochloa chinensis activity level” value stood at 9. The “Echinochloa crusgalli activity level” value in test [2] is 9. The “Echinochloa phyllopogon activity level” value in test [3] turned out to be 9.

For `COc1cccc(C2CN(C)C(=O)C2C(=O)Nc2cnn(C)c2Cl)c1F` (stereo not drawn) [Compound 307], in test [1], the “Leptochloa chinensis activity level” value is 5 (Level 5: growth control rate greater than or equal to 50% and less than 70%). Moreover, the “Echinochloa crusgalli activity level” value in test [2] is 6 (Level 6: growth control rate greater than or equal to 70% and less than 80%). Further, the “Echinochloa phyllopogon activity level” value in test [3] is 6 (Level 6: growth control rate greater than or equal to 70% and less than 80%).

As for `Cc1cccc([C@H]2CN(C)C(=O)[C@@H]2C(=O)Nc2cnn(C3CC3)c2Cl)c1` [128′], the “Leptochloa chinensis activity level” value in test [1] was determined as 9. Besides, in test [2], the “Echinochloa crusgalli activity level” value was determined as 9. Moreover, the “Echinochloa phyllopogon activity level” value in test [3] is 8 (Level 8: growth control rate greater than or equal to 90% and less than 100%).

Consider `CN1C[C@H](c2cccc(I)c2)[C@@H](C(=O)Nc2cnn(C)c2Cl)C1=O` [125′], for which, in test [1], the “Leptochloa chinensis activity level” value is listed as 9. Further, the “Echinochloa crusgalli activity level” value in test [2] is given as 9. For the same compound, the “Echinochloa phyllopogon activity level” value in test [3] is 9.

As for `CN1CC(c2cccc(Br)c2)C(C(=O)Nc2cnn(C)c2Cl)C1=O` (stereo not drawn) [Compound 126], in test [1], the “Leptochloa chinensis activity level” value is recorded as 9. In test [2], the “Echinochloa crusgalli activity level” value is 7 (Level 7: growth control rate greater than or equal to 80% and less than 90%). Besides, the “Echinochloa phyllopogon activity level” value in test [3] was 7 (Level 7: growth control rate greater than or equal to 80% and less than 90%).

Regarding `CN1CC(c2cccc(OC(F)(F)F)c2)C(C(=O)Nc2cnn(C)c2Cl)C1=O` (stereo not drawn) [Compound 33], in test [1], the “Leptochloa chinensis activity level” value is 9. Moreover, the “Echinochloa crusgalli activity level” value in test [2] is given as 9. Besides, the “Echinochloa phyllopogon activity level” value in test [3] is 5 (Level 5: growth control rate greater than or equal to 50% and less than 70%).

As to `CC(C)n1ncc(NC(=O)C2C(=O)N(C)CC2c2cccc(C(F)(F)F)c2)c1Cl` (stereo not drawn) [Compound 97], the “Leptochloa chinensis activity level” value in test [1] is 9. The “Echinochloa crusgalli activity level” value in test [2] was determined as 9. Also, the “Echinochloa phyllopogon activity level” value in test [3] was 7 (Level 7: growth control rate greater than or equal to 80% and less than 90%).

As for `COc1cc(C)cc([C@H]2CN(C)C(=O)[C@@H]2C(=O)Nc2cnn(C)c2Cl)c1` [300′], the “Leptochloa chinensis activity level” value in test [1] is given as 9. Besides, the “Echinochloa crusgalli activity level” value in test [2] is 9. The “Echinochloa phyllopogon activity level” value in test [3] is 7 (Level 7: growth control rate greater than or equal to 80% and less than 90%).

With `CN1C[C@H](c2cccc(C3CCCC3)c2)[C@@H](C(=O)Nc2cnn(C)c2Cl)C1=O` [152′], the “Leptochloa chinensis activity level” value in test [1] is 9. Moreover, the “Echinochloa crusgalli activity level” value in test [2] came out at 9. Moreover, the “Echinochloa phyllopogon activity level” value in test [3] was 8 (Level 8: growth control rate greater than or equal to 90% and less than 100%).
